Entries after “also recorded” stand apart in the source; their conditions may differ. Where two headings read alike, the source gives them in different places.

The target of the assay is Jack bean urease (Canavalia ensiformis, UniProt P07374). Kind of assay: Jack bean urease inhibition. The format is biochemical.
Setting [1] is: read-out: IC50 ± SEM, Table 2, derivatives 6a-6f, triplicate.
The mark [2] stands for this setting: IC50 ± SEM, Table 1, derivatives 3a-3f, triplicate.
Where [3] appears, read: urease inhibition IC50, values in the abstract.

Chain of Jack bean urease (P07374 whole entry, looked up): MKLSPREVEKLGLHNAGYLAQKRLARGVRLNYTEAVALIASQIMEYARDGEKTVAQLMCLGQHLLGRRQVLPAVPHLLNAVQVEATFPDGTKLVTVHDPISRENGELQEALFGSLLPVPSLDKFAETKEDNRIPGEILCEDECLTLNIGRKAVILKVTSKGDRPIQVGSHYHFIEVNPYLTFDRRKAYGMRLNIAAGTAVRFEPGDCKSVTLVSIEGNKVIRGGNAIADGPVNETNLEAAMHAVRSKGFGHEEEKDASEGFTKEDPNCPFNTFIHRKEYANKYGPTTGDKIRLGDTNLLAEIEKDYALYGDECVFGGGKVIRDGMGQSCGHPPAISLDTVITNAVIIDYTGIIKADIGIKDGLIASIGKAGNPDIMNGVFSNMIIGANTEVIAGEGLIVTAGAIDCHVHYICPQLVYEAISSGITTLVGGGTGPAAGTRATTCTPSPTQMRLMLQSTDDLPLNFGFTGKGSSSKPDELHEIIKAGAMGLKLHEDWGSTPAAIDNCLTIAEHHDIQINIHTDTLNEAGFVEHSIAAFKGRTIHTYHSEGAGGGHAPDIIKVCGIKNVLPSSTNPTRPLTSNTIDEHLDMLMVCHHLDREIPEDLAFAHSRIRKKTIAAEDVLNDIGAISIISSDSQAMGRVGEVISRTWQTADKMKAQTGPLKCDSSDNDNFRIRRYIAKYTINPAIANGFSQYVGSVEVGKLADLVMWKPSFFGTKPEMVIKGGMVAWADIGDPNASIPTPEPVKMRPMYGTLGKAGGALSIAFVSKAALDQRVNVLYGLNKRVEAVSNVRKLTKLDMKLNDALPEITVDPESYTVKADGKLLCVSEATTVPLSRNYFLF

With `COc1ccc2cc(C(C)n3cnc4ccccc43)ccc2c1` (racemic) [6a], the half-inhibitory concentration (IC50) under setting [1] turned out to be 38 ± 1.3 µM.
As for `COc1ccc2cc(C(C)c3nc4ccc(Cl)cc4[nH]3)ccc2c1` (racemic) [6b, (±)-6-chloro-2-((R)-1-(2-methoxynaphthalen-6-yl)ethyl)-1H-benzo[d]imidazol], the IC50 under setting [1] came out at 36 ± 1.7 µM.
Still for that read-out and setting: in the case of `COc1ccc2cc(C(C)c3nc4ccc(Br)cc4[nH]3)ccc2c1` (racemic) [6c, (±)-6-bromo-2-((R)-1-(2-methoxynaphthalen-6-yl)ethyl)-1H-benzo[d]imidazol] it was 51 ± 9.3 µM; in that of `COc1ccc2cc(C(C)c3nc4ccc(C)cc4[nH]3)ccc2c1` (racemic) [6e, (±)-6-methyl-2-((R)-1-(2-methoxynaphthalen-6-yl)ethyl)-1H-benzo[d] imidazol], 44 ± 2.4 µM; in that of `COc1ccc2cc(C(C)n3cnc4ccccc43)ccc2c1` (racemic) [6f], 39 ± 2.4 µM.
Take `COc1ccc2cc(C(C)c3nc4ccc([N+](=O)[O-])cc4[nH]3)ccc2c1` (racemic) [compound 6d, (±)-6-Nitro-2-((R)-1-(2-methoxynaphthalen-6-yl)ethyl)-1H-benzo[d]imidazol]: the “urease inhibition, result in words” value is given as “not showing significant urease inhibition”. Further, under setting [1], the concentration for half-maximal inhibition (IC50) is 99 ± 9.4 µM.
On to `CC(O)c1nc2ccccc2[nH]1` (single isomer, unassigned) [compound 3a, (R or S)-1-(1H-benzo[d]imidazol-2-yl)ethanol], for which the “urease inhibition, result in words” value is given as “significant urease inhibition; also recorded: good enzyme inhibitory activity; also recorded: most potent”. Under setting [2], this compound showed an IC50 of 22 ± 6.2 µM. In addition, the IC50 under setting [3] stood at 22.3 ± 6.2 µM.
Regarding `CC(O)c1nc2ccccc2[nH]1` (single isomer, unassigned) [compound 3f, (R or S)-1-(1H-benzo[d]imidazol-2-yl)ethanol], the “urease inhibition, result in words” value is reported as “significant urease inhibition; also recorded: good enzyme inhibitory activity; also recorded: most potent”. Under setting [2], this compound had an IC50 of 31 ± 23.3 µM. The compound also displayed an IC50 under setting [3] of 31.4 ± 23.3 µM.
On to `NC(N)=S` [thiourea, reference compound], for which, under “read-out: IC50 of reference thiourea, standard inhibitor”, the IC50 was 20.9 µM.

In general, IC50 refers to the concentration that inhibits the measured activity by half.

These data come from article PMC7567930 (Heliyon, 2020).
